Laboratory results reported in patent US10683290B2, “Tricyclic compounds as anticancer agents” (BRISTOL-MYERS SQUIBB COMPANY, priority 2015, dated 2020).
Where two headings read alike, the source gives them in different places.

Biological target: BRD4 (Homo sapiens, UniProt O60885)
Assay: biochemical
Type: binding
[1] = one of the FRET assays described, read-out: FRET BRD4 IC50

[2H]C([2H])([2H])c1nnn(C)c1-c1cc2c(cc1Cl)c1ncc(C(C)(C)O)cc1n2C(c1cc(C)on1)C1CCOCC1 (single isomer, unassigned) [Example 79, 2-{8-chloro-5-[(5-methyl-1,2-oxazol-3-yl)(oxan-4-yl)methyl]-7-[4-(^2H3)methyl-1-methyl-1H-1,2,3-triazol-5-yl]-5H-pyrido[3,2-b]indol-3-yl}propan-2-ol] gave an IC50 [1] of less than 1500 nM.

[2H]C([2H])([2H])c1nnn(C)c1-c1cc2c(cc1Cl)c1ncc(C(C)(C)O)cc1n2C(c1ccccn1)C1CCOCC1 (single isomer, unassigned) [Example 80, 2-{8-chloro-7-[4-(^2H3)methyl-1-methyl-1H-1,2,3-triazol-5-yl]-5-[oxan-4-yl(pyridin-2-yl)methyl]-5H-pyrido[3,2-b]indol-3-yl}propan-2-ol] was tested, and the IC50 [1] was less than 1500 nM.

Work on [2H]C([2H])([2H])c1nnn(C)c1-c1cc2c(cc1Cl)c1ncc(C(C)(C)O)cc1n2C(c1ccccn1)C1CCOCC1 (single isomer, unassigned) [Example 81, 2-{8-chloro-7-[4-(^2H3)methyl-1-methyl-1H-1,2,3-triazol-5-yl]-5-[oxan-4-yl(pyridin-2-yl)methyl]-5H-pyrido[3,2-b]indol-3-yl}propan-2-ol] yielded an IC50 [1] of less than 1500 nM.

Compound [2H]C([2H])([2H])c1nnn(C)c1-c1cc2c(cc1Cl)c1ncc(C(C)(C)O)cc1n2C(CCC)c1ncccc1F (single isomer, unassigned) [Example 82, 2-{8-chloro-5-[1-(3-fluoropyridin-2-yl)butyl]-7-[4-(^2H3)methyl-1-methyl-1H-1,2,3-triazol-5-yl]-5H-pyrido[3,2-b]indol-3-yl}propan-2-ol] has an IC50 [1] of less than 1500 nM.

[2H]C([2H])([2H])c1nnn(C)c1-c1cc2c(cc1Cl)c1ncc(C(C)(C)O)cc1n2C(CCC)c1ncccc1F (single isomer, unassigned) [Example 83, 2-{8-chloro-5-[1-(3-fluoropyridin-2-yl)butyl]-7-[4-(^2H3)methyl-1-methyl-1H-1,2,3-triazol-5-yl]-5H-pyrido[3,2-b]indol-3-yl}propan-2-ol] was tested, and the IC50 [1] was less than 5 nM.

Compound [2H]C([2H])([2H])c1nnn(C)c1-c1ccc2c3ncc(C(C)(C)O)cc3n(C(c3ncccc3F)C3CCOCC3)c2c1F (single isomer, unassigned) [Example 84, 2-{6-Fluoro-5-[(3-fluoropyridin-2-yl)(oxan-4-yl)methyl]-7-[4-(^2H3)methyl-1-methyl-1H-1,2,3-triazol-5-yl]-5H-pyrido[3,2-b]indol-3-yl}propan-2-ol] has an IC50 [1] of less than 5 nM.

Compound [2H]C([2H])([2H])c1nnn(C)c1-c1ccc2c3ncc(C(C)(C)O)cc3n(C(c3ncccc3F)C3CCOCC3)c2c1F (single isomer, unassigned) [Example 85, 2-{6-Fluoro-5-[(3-fluoropyridin-2-yl)(oxan-4-yl)methyl]-7-[4-(^2H3)methyl-1-methyl-1H-1,2,3-triazol-5-yl]-5H-pyrido[3,2-b]indol-3-yl}propan-2-ol] has an IC50 [1] of less than 5 nM.

Cc1ccc2c(n1)c1c(C(N)=O)cc(-c3c(C)noc3C)cc1n2Cc1ccccc1 [Example 1, 5-Benzyl-7-(dimethyl-1,2-oxazol-4-yl)-2-methyl-5H-pyrido[3,2-b]indole-9-carboxamide] showed an IC50 [1] of less than 1500 nM.

Cc1ccc2c(n1)c1ccc(-c3c(C)noc3C)cc1n2Cc1ccccc1 [Example 2, 4-{5-Benzyl-2-methyl-5H-pyrido[3,2-b]indol-7-yl}-3,5-dimethyl-1,2-oxazole] showed an IC50 [1] of less than 1500 nM.

Cc1nnn(C)c1-c1ccc2c3ncc(C(C)(C)O)cc3n([C@H](c3ccc(F)cc3)C3CCOCC3)c2c1 [Example 3, 2-[7-(Dimethyl-1H-1,2,3-triazol-5-yl)-5-[(S)-(4-fluorophenyl)(oxan-4-yl)methyl]-5H-pyrido[3,2-b]indol-3-yl]propan-2-ol] gave an IC50 [1] of less than 1 nM.

Compound Cc1nnn(C)c1-c1ccc2c3ncc(C(C)(C)O)cc3n(C(CCC(F)(F)F)CCC(F)(F)F)c2c1 [Example 4, 2-[7-(dimethyl-1H-1,2,3-triazol-5-yl)-5-(1,1,1,7,7,7-hexafluoroheptan-4-yl)-5H-pyrido[3,2-b]indol-3-yl]propan-2-ol] has an IC50 [1] of less than 5 nM.

Work on CCCC(CCC)n1c2cc(-c3c(C)nnn3C)ccc2c2ncc(C(C)(C)O)cc21 [Example 5, 2-[7-(dimethyl-1H-1,2,3-triazol-5-yl)-5-(heptan-4-yl)-5H-pyrido[3,2-b]indol-3-yl]propan-2-ol] yielded an IC50 [1] of less than 5 nM.

In the case of Cc1nnn(C)c1-c1ccc2c3ncc(C(C)(C)O)cc3n([C@H](c3ccccc3)C3CCOCC3)c2c1 [Example 8, 2-[7-(dimethyl-1H-1,2,3-triazol-5-yl)-5-[(S)-oxan-4-yl(phenyl)methyl]-5H-pyrido[3,2-b]indol-3-yl]propan-2-ol], the IC50 [1] is reported as less than 1 nM.

Work on Cc1nnn(C)c1-c1ccc2c3ncc(C(C)(C)O)cc3n([C@H](c3ccccc3F)C3CCOCC3)c2c1 [Example 9, 2-[7-(dimethyl-1H-1,2,3-triazol-5-yl)-5-[(S)-(2-fluorophenyl)(oxan-4-yl)methyl]-5H-pyrido[3,2-b]indol-3-yl]propan-2-ol] yielded an IC50 (FRET BRD4 IC50 (nM), one of the FRET assays described) of less than 5 nM.

Cc1nnn(C)c1-c1cc(F)c2c3ncc(C(C)(C)O)cc3n(C(CCC(F)(F)F)CCC(F)(F)F)c2c1 [Example 10, 2-[7-(Dimethyl-1H-1,2,3-triazol-5-yl)-9-fluoro-5-(1,1,1,7,7,7-hexafluoroheptan-4-yl)-5H-pyrido[3,2-b]indol-3-yl]propan-2-ol] was tested, and the IC50 [1] was less than 5 nM.

With Cc1nnn(C)c1-c1cc(F)c2c3ncc(C(C)(C)O)cc3n([C@H](c3ccccc3)C3CCOCC3)c2c1 [Example 11, 2-[7-(Dimethyl-1H-1,2,3-triazol-5-yl)-9-fluoro-5-[(S)-oxan-4-yl(phenyl)methyl]-5H-pyrido[3,2-b]indol-3-yl]propan-2-ol] the IC50 [1] was less than 1 nM.

With Cc1nnn(C)c1-c1cc(Cl)c2c3ncc(C(C)(C)O)cc3n(C(CCC(F)(F)F)CCC(F)(F)F)c2c1 [Example 12, 2-[9-Chloro-7-(dimethyl-1H-1,2,3-triazol-5-yl)-5-(1,1,1,7,7,7-hexafluoroheptan-4-yl)-5H-pyrido[3,2-b]indol-3-yl]propan-2-ol] the IC50 [1] was less than 5 nM.

Cc1nnn(C)c1-c1cc(Cl)c2c3ncc(C(C)(C)O)cc3n([C@H](c3ccccc3)C3CCOCC3)c2c1 [Example 13, 2-[9-Chloro-7-(dimethyl-1H-1,2,3-triazol-5-yl)-5-[(S)-oxan-4-yl(phenyl)methyl]-5H-pyrido[3,2-b]indol-3-yl]propan-2-ol] showed an IC50 [1] of less than 1 nM.

With Cc1noc(C)c1-c1ccc2c3ncc(C(C)(C)O)cc3n([C@H](c3ccccc3)C3CCOCC3)c2c1 [Example 14, 2-[7-(Dimethyl-1,2-oxazol-4-yl)-5-[(S)-oxan-4-yl(phenyl)methyl]-5H-pyrido[3,2-b]indol-3-yl]propan-2-ol] the IC50 [1] was less than 5 nM.

For Cc1noc(C)c1-c1ccc2c3ncc(C(C)(C)O)cc3n([C@H](c3ccccc3F)C3CCOCC3)c2c1 [Example 15, 2-[7-(Dimethyl-1,2-oxazol-4-yl)-5-[(S)-(2-fluorophenyl)(oxan-4-yl)methyl]-5H-pyrido[3,2-b]indol-3-yl]propan-2-ol], the IC50 [1] was less than 5 nM.

Compound [2H]C([2H])([2H])c1nnn(C)c1-c1ccc2c3ncc(C(C)(C)O)cc3n([C@H](c3ccccc3)C3CCOCC3)c2c1 [Example 16, 2-{7-[4-(^2H3)Methyl-1-methyl-1H-1,2,3-triazol-5-yl]-5-[(S)-oxan-4-yl(phenyl)methyl]-5H-pyrido[3,2-b]indol-3-yl}propan-2-ol] has an IC50 (read-out: FRET BRD4 IC50) of less than 5 nM.

Cc1noc(C)c1-c1ccc2c3ncc(C(C)(C)O)cc3n([C@H](c3ccccc3)C3CCOCC3)c2c1F [Example 17, 2-[7-(Dimethyl-1,2-oxazol-4-yl)-6-fluoro-5-[(S)-oxan-4-yl(phenyl)methyl]-5H-pyrido[3,2-b]indol-3-yl]propan-2-ol] was tested, and the IC50 [1] was less than 5 nM.

Cc1noc(C)c1-c1cc2c(cc1F)c1ncc(C(C)(C)O)cc1n2[C@H](c1ccccc1)C1CCOCC1 [Example 18, 2-[7-(dimethyl-1,2-oxazol-4-yl)-8-fluoro-5-[(S)-oxan-4-yl(phenyl)methyl]-5H-pyrido[3,2-b]indol-3-yl]propan-2-ol] was tested, and the IC50 [1] was less than 5 nM.

For Cc1nnn(C)c1-c1cc2c(cc1F)c1ncc(C(C)(C)O)cc1n2[C@H](c1ccccc1)C1CCOCC1 [Example 19, 2-[7-(Dimethyl-1H-1,2,3-triazol-5-yl)-8-fluoro-5-[(S)-oxan-4-yl(phenyl)methyl]-5H-pyrido[3,2-b]indol-3-yl]propan-2-ol], the IC50 [1] was less than 1500 nM.

With Cc1nnn(C)c1-c1ccc2c3ncc(C(C)(C)O)cc3n([C@H](c3ccccc3)C3CCOCC3)c2c1F [Example 20, 2-[7-(Dimethyl-1H-1,2,3-triazol-5-yl)-6-fluoro-5-[(S)-oxan-4-yl(phenyl)methyl]-5H-pyrido[3,2-b]indol-3-yl]propan-2-ol] the IC50 [1] was less than 5 nM.

Cc1nnn(C)c1-c1cc2c(cc1F)c1ncc(C(C)(C)O)cc1n2[C@H](c1ccccc1F)C1CCOCC1 [Example 21, 2-[7-(Dimethyl-1H-1,2,3-triazol-5-yl)-8-fluoro-5-[(S)-(2-fluorophenyl)(oxan-4-yl)methyl]-5H-pyrido[3,2-b]indol-3-yl]propan-2-ol] showed an IC50 [1] of less than 1 nM.

Work on [2H]C([2H])([2H])c1nnn(C)c1-c1cc2c(cc1F)c1ncc(C(C)(C)O)cc1n2[C@H](c1ccccc1F)C1CCOCC1 [Example 22, 2-{8-Fluoro-5-[(S)-(2-fluorophenyl)(oxan-4-yl)methyl]-7-[4-(^2H3)methyl-1-methyl-1H-1,2,3-triazol-5-yl]-5H-pyrido[3,2-b]indol-3-yl}propan-2-ol] yielded an IC50 [1] of less than 1 nM.

In the case of Cc1nnn(C)c1-c1cc2c(cc1F)c1ncc(S(C)(=O)=O)cc1n2[C@H](c1ccccc1F)C1CCOCC1 [Example 25, 5-{8-Fluoro-5-[(S)-(2-fluorophenyl)(oxan-4-yl)methyl]-3-methanesulfonyl-5H-pyrido[3,2-b]indol-7-yl}-1,4-dimethyl-1H-1,2,3-triazole], the IC50 [1] is reported as less than 1 nM.

Cc1nnn(C)c1-c1ccc2c3ncc(S(C)(=O)=O)cc3n([C@H](c3ccccc3)C3CCOCC3)c2c1 [Example 26, 5-{3-Methanesulfonyl-5-[(S)-oxan-4-yl(phenyl)methyl]-5H-pyrido[3,2-b]indol-7-yl}-1,4-dimethyl-1H-1,2,3-triazole] gave an IC50 [1] of less than 5 nM.
